In US20190112598A1, “Methods and Systems of Cell-Free Enzyme Discovery and Optimization” (President and Fellows of Harvard College, priority 2016, published 2019):

Target: T1, AcuR (Cereibacter sphaeroides, UniProt Q3J6K8)
T1 construct: made in house; host or cells: cell-free expression reaction (NEB P/N E6800 components A and B) from T7-promoter linear dsDNA, made in the assay well itself
T1 sequence (Q3J6K8 1-219): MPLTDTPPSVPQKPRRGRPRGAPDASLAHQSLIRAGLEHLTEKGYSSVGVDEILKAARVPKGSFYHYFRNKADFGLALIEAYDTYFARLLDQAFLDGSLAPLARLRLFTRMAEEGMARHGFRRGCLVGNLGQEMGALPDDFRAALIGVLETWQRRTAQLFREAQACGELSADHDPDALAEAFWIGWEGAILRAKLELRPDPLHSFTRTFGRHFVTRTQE
Assay: Cell-free observation of acrylate: AcuR sensor with GFP reporter in a cell-free expression reaction
Type: biochemical
Conditions: 0.1 mM sodium acrylate; 37° C.; 395 nm excitation; measured every two minutes for 4 hours; sample without acrylate rose to 260; FIG. 1
From the text: DNA encoded biological acrylate sensor was used to detect acrylate. AcuR is a transcription factor whose activity is dependent on the concentration of acrylate. A linear dsDNA encoding the acrylate sensor AcuR is combined with a reporter circular plasmid which contained a GFP protein controlled by a promoter regulated by AcuR. Thus, GFP fluorescence is related to the amount of acrylate in the sample.
In order to obtain an adequate signal-to-noise ratio (SNR), a T7 promoter was used to drive the expression of the sensor to achieve high expression of the sensor protein and ensure outnumbering of the number of reporter promoters, and well controlled expression. Additionally, an E. coli RNAP promoter was used to drive expression on the reporter, as it reduces the level of background signal, and provides with a more accurate control by AcuR.
Linear DNA amplification: Linear dsDNA containing AcuR was prepared by PCR amplification using primers which contain a T7 promoter, and ribosome binding site (RBS). […]
The samples were incubated at 37° C., and the fluorescence signal (395 nm excitation, 470 nm […]) of the sample was measured every two minutes for 4 hours.

C=CC(=O)O [acrylate]
increase of fluorescence (GFP reporter signal): 750 arbitrary units
